The values below come from publication PMC3896228, “Physalin H from Solanum nigrum as an Hh signaling inhibitor blocks GLI1–DNA-complex formation” (Beilstein Journal of Organic Chemistry, 2014).

The nature of data set [1]: Cytotoxicity test against C3H10T1/2 normal cells. The conditions noted are these: mouse, C3H10T1/2 cells (normal cell line). It counts as cell-based. From the text:
(§1) […]. […] […]. […] […].

The subject of data set [2] is C3H10T1/2. Briefly: Cytotoxicity test against C3H10T1/2 normal cells. It counts as cell-based. The conditions noted are these: normal cell line.
Source text: as §1

The test system of data set [3] is assay cells (HaCaT cells expressing exogenous GLI1). Briefly: Cytotoxicity against reporter assay cells (cell viability). The source says:
(§2) We evaluated the Hh inhibitory activity of the isolated compounds by using a previously described method. […] In addition we always checked the cytotoxicity of the compounds against the assay cells, because a decrease in the number of living cells also correlates with a reduced luciferase activity. […] Further, we examined the cytotoxicity against cancer cells, human pancreatic (PANC1) and prostate (DU145) cancer cell lines, in which Hh signaling is aberrantly activated (Table 1).
(§3) The NMR measurements were carried out with JEOL ECP400 and ECP600 spectrometers in deuterated solvents and the residual proton chemical shift was taken as an internal standard. MS data were obtained with a JEOL JMS-T100LP (ESI). IR spectra were measured by using the ATR (attenuated total reflection) method on a Jasco FT-IR 230 spectrophotometer. […] The procedures for the GLI1-mediated transcriptional activity assay, Western blot analysis and cytotoxicity test were as previously described. The GST–GLI1 protein was produced as previously described.

The test system of data set [4] is PANC1. Briefly: Cytotoxicity test against PANC1. It is filed as cell-based. To be noted: Homo sapiens, PANC-1.
Source text: as §1

A further data set deals with DU145. The data set can be described thus: Cytotoxicity test against DU145. It counts as cell-based.
Source text: as §1

The test system of data set [5] is GLI1 transcriptional activity. Briefly: cells. It is filed as cell-based. To be noted: for IC50: read-out: GLI1 transcriptional inhibition, IC50.
Source text: In addition, we evaluated the Hh inhibitory activity by assessing the cytotoxicity against cancer cells and the expression of Hh-related proteins.
as §2, §3

Data set [6] deals with GLI1 transcriptional activity. The conditions noted are these: cited from earlier work.
The target of data set [7] is T1, GLI1–DNA complex (GST–GLI1 171-515aa, GLI1–BS) (Homo sapiens, UniProt P08151).
T1 construct: GST–GLI1 (171-515aa); made in house; host or cells: Escherichia coli
T1 sequence (P08151 171-515): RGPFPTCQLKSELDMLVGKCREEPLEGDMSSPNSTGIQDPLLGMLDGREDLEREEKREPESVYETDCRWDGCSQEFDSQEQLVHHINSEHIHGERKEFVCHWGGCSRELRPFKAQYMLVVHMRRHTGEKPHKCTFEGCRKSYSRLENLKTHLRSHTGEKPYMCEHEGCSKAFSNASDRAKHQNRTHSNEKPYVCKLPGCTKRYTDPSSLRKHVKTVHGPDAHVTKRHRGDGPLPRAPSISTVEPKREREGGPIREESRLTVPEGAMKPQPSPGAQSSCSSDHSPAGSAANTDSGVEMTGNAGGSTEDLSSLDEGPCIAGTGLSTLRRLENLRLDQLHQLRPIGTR
It is filed as binding. To be noted: EMSA, 200 μM. Background: In EMSA bound probe runs differently from free probe, usually more slowly.

The subject of data set [8] is PANC1. The conditions noted are these: read-out: Cytotoxicity, IC50 PANC1; cited from earlier work.
The test system of data set [9] is C3H10T1/2. The conditions noted are these: cited from earlier work; for survival of C3H10T1/2 cells: normal cell line; for IC50: read-out: Cytotoxicity, IC50 C3H10T1/2, C3H10T1/2.
The test system of data set [10] is PTCH. Briefly: Western blot analysis of PTCH in DU145 cells. It counts as cell-based, human. The conditions noted are these: 3.0 μM, DU145 cancer cells.
Source text: as §1
(§4) Figure 4 Inhibition of protein expression by compound 1. (A) Western blot analysis of PTCH, BCL-2 protein levels in GLI1-overexpressing HaCaT cells after treatment with 1. (B) Western blot analysis of PTCH, BCL-2 protein levels in DU145 cells after treatment with 1.
(In general: In western blotting, separated proteins are transferred to a membrane and probed.)

Data set [11] deals with BCL2. The data set can be described thus: Western blot analysis of BCL2 in DU145 cells. It is filed as cell-based, human. The conditions noted are these: 3.0 μM, DU145 cancer cells.
Source text: as §1, §4

Data set [12] has as its system PTCH. The data set can be described thus: Western blot analysis of PTCH in GLI1-overexpressing HaCaT cells. It is filed as cell-based. To be noted: 3.0 μM, HaCaT cells expressing exogenous GLI1, Western blot.
Source text: as §1, §4

The test system of data set [13] is BCL2. Briefly: Western blot analysis of BCL2 in GLI1-overexpressing HaCaT cells. It is filed as cell-based. To be noted: 3.0 μM, HaCaT cells expressing exogenous GLI1, Western blot.
Source text: as §1, §4

[14] abbreviates: Homo sapiens, DU-145; read-out: Cytotoxicity, IC50 DU145.
The mark [15] stands for this setting: read-out: GLI1 transcriptional inhibition, IC50.

Like-named read-outs stand apart in the source and are kept apart here.

With `CC12C(=O)CC=CC1=CCC1C2CCC2(O)C(=O)OC3(C)C4CC5(C)C(COC16OC23C5C6=O)C(=O)O4` (centres unmarked) [isophysalin B (4), isophysalin B], the IC50 in data set [1] was more than 12 µM; in the data set with PANC1 [4] it was 12 µM; in the data set with DU145 (setting [14]), more than 12 µM; in [5], 4.2 µM. Further, in the data set with C3H10T1/2 [2], the “survival of C3H10T1/2 cells” value is “not significantly affected”. For the same molecule, the “cytotoxicity against assay cells” value in data set [3] is “low cytotoxicity”.

For the molecule `C=C1C(=O)OC2CC1(C)C1C(=O)C3(O)OC14C(O)(CCC1C3CC=C3CC=CC(=O)C31C)C(=O)OC24C` (centres unmarked) [physalin B (6], the IC50 in data set [6] (setting [15]) was 0.62 µM.

`COC(=O)[C@]1(C)CCC[C@]2(C)c3cc4occc4c(C)c3C[C@@H](OC(C)=O)[C@@H]12` [taepeenin D, reference compound]: in data set [6] (read-out: Hh inhibition IC50), the IC50 is 1.6 µM.

For the molecule `C[C@]12C(=O)C=CC=C1[C@@H](O)C[C@@H]1[C@@H]2CC[C@@]2(O)C(=O)O[C@@]3(C)[C@H]4C[C@]5(C)[C@@H](CO[C@@]16O[C@]23[C@H]5C6=O)C(=O)O4` [physalin G (2), physalin G], the “formation of GLI1–DNA complex” value in [7] is given as “did not inhibit”. Besides, the IC50 in the data set on DU145 (Homo sapiens, DU-145, read-out: Cytotoxicity, IC50 DU145) was more than 12 µM; in data set [5], 47.1 µM.

With `CC12C(=O)C=CC=C1C(O)CC1C2CCC2(O)C(=O)OC3(C)C4CC5(C)C(COC16OC23C5C6=O)C(=O)O4` (centres unmarked) [physalin G (2], in data set [5], the IC50 is 47.1 µM.

For the molecule `CC12CC3OC(=O)C1COC14OC5(C2C1=O)C(O)(CCC1C4CC2OC24CC=CC(=O)C14C)C(=O)OC35C` (centres unmarked) [physalin F (5], in [6] (setting [15]), the IC50 is 0.66 µM.

In the case of `CC12CC3OC(=O)C1COC14OC5(C2C1=O)C(O)(CCC1C4CC(O)C24C=CC(OO2)C(=O)C14C)C(=O)OC35C` (centres unmarked) [physalin K (3), physalin K], the Hh inhibition result in data set [5] is “did not show Hh inhibition at all”.

Consider `C=CC(C)(O)CC[C@@]1(C)C2=C([C@H](OC(C)=O)[C@H](OC(C)=O)[C@H]1C)C(C)(C)CCC2` (some centres unmarked) [vitetrifolin D, reference compound], for which the IC50 in data set [6] (read-out: Hh inhibition IC50) is 20.2 µM.

Take `C[C@@]12C[C@H]3OC(=O)[C@@H]1CO[C@]14O[C@]5([C@H]2C1=O)[C@@](O)(CC[C@H]1[C@H]4C[C@H]2O[C@]24CC=CC(=O)[C@]14C)C(=O)O[C@@]35C` [physalin F (5), physalin F]: the IC50 with PANC1 [8] is 2.7 µM; in the data set on C3H10T1/2 [9] it was 15 µM; in data set [6] (setting [15]), 0.66 µM. For the same molecule, the “survival of C3H10T1/2 cells” value in the data set with C3H10T1/2 [9] is on record as “not significantly affected”.

Consider `C=C(C)[C@@H]1CC[C@]2(C(=O)O)CC[C@]3(C)[C@H](CC[C@@H]4[C@@]5(C)[C@H](C=O)[C@@H](O)C(C)(C)[C@@H]5CC[C@]43C)[C@@H]12` [colubrinic acid, reference compound], for which, in data set [6] (read-out: Hh inhibition IC50), the IC50 was 38 µM.

`CC12CC3OC(=O)C1COC14OC5(C2C1=O)C(O)(CCC1C4CC(O)C2(Cl)CC=CC(=O)C12C)C(=O)OC35C` (centres unmarked) [physalin H (1), physalin H]: the “expression of PTCH” value was “only slightly affected” in the data set on PTCH [10] and “inhibited the expression” in the data set with PTCH [12]. Further, the IC50 was more than 6 µM in data set [1], 5.7 µM with PANC1 [4] and 6.8 µM in the data set on DU145 (setting [14]). Moreover, the “survival of C3H10T1/2 cells” value with C3H10T1/2 [2] is “not significantly affected”. The “expression of BCL2” value in the data set on BCL2 [11] was “decreased the expression”; in the data set with BCL2 [13], “inhibited the expression”.

As for `C[C@]12C(=O)C=CCC1=CC[C@@H]1[C@@H]2CC[C@@]2(O)C(=O)O[C@@]3(C)[C@H]4C[C@]5(C)[C@@H](CO[C@@]16O[C@]23[C@H]5C6=O)C(=O)O4` [physalin B (6), physalin B], the results for the IC50 (with PANC1 [8]; in the data set on C3H10T1/2 [9]; in data set [6] (setting [15])) were 5.3 µM, 17 µM and 0.62 µM, respectively. Moreover, in the data set on C3H10T1/2 [9], the “survival of C3H10T1/2 cells” value was “not significantly affected”.
